In patent publication US8932842B2, “Aminopyridine dimer compounds, compositions and related methods for neuronal nitric oxide synthase inhibition” (Northwestern University, priority 2009, dated 2015):
Entries after “also recorded” stand apart in the source; their conditions may differ. Like-named read-outs stand apart in the source and are kept apart here.

Legend:
rat nNOS = molecular target: T1, rat nNOS (Rattus norvegicus, UniProt P29476); experiment: NOS enzyme assay (hemoglobin capture), nNOS; format: biochemical; details: for activity/potency for nNOS in words: purified enzyme assay; for Ki: rat nNOS; for n/e: ratio of Ki (eNOS) to Ki (nNOS); for n/e / n/i: Tables 1-3; for n/i: ratio of Ki (iNOS) to Ki (nNOS)
T1 construct: made in house; host or cells: E. coli
Experimental: (§1) As above, the activities of the target compounds of Schemes 8-9 were determined against three NOS isozymes: rat nNOS, bovine eNOS and marine iNOS using known literature methods.
(§2) Enzyme Assays. […] The four enzyme isoforms were recombinant enzymes overexpressed (in E. coli) and isolated as reported. […] The formation of nitric oxide was measured using a well-known hemoglobin capture assay, as described previously in the literature. […] Ki=IC50/(1+[S]/Km) (1)

bovine eNOS = molecular target: T2, bovine eNOS (Bos taurus, UniProt P29473); experiment: NOS enzyme assay (hemoglobin capture), eNOS; format: biochemical
T2 construct: made in house; host or cells: E. coli
Experimental: as §1, §2

murine macrophage iNOS = molecular target: T3, murine macrophage iNOS (Mus musculus, UniProt P29477); experiment: NOS enzyme assay (hemoglobin capture), iNOS; format: biochemical
T3 construct: made in house; host or cells: E. coli
Experimental: as §1, §2

[1] = molecular target: T4, nNOS in 293T cells overexpressing nNOS (293T/nNOS cells) (Rattus norvegicus, UniProt P29476); experiment: Cell-based assay: inhibition of nNOS in 293T/nNOS cells, nitrite by Griess reagent; details: for activity in the cell-based assay in words: 293T/nNOS cells, FIG. 4; for membrane penetration ability / bioavailability based on cell-based assay: inferred from 293T/nNOS cell-based assay
T4 construct: expressed in transfected cells; host or cells: 293T cells (293T/nNOS)
Text: After eight hours, the amount of nitrite in culture media was quantified with the Griess reagent. Each data point is an average of two independent experiments.

[2] = Ki calculated from directly measured IC50 values, read-out: Ki nNOS
[3] = Ki calculated from directly measured IC50 values, read-out: Ki eNOS
[4] = Ki calculated from directly measured IC50 values, read-out: Ki iNOS
[5] = Table 4, read-out: Ki (μM) eNOS
[6] = Table 4, read-out: Ki (μM) nNOS
[7] = Table 4, read-out: Ki (μM) iNOS

## Cc1cc(C)nc(NCc2ccc3cc(CNc4cc(C)cc(C)n4)ccc3c2)c1 [3a, N,N′-(Naphthalene-2,6-diylbis(methylene))bis(4,6-dimethylpyridin-2-amine)]
Rat nNOS
  activity/potency for nNOS in words: poor activity
Rat nNOS; [2]
  Ki: > 11.5 µM

## Cc1cc(N)nc(CCc2ccc3cc(CCc4cc(C)cc(N)n4)ccc3c2)c1 [3b, 6,6′-(2,2′-(Naphthalene-2,6-diyl)bis(ethane-2,1-diyl))bis(4-methylpyridin-2-amine)]
Bovine eNOS; [3]
  Ki: 1.74 µM
Rat nNOS
  selectivity for nNOS over eNOS: 7 fold
  selectivity for nNOS over iNOS: 9 fold
  n/e: 7.22
  n/i: 9.42
Rat nNOS; [2]
  Ki: 0.241 µM
Murine macrophage iNOS; [4]
  Ki: 2.27 µM

## Cc1cc(N)nc(CCc2ccc3ccc(CCc4cc(C)cc(N)n4)cc3c2)c1 [3c, 6,6′-(2,2′-(Naphthalene-2,7-diyl)bis(ethane-2,1-diyl))bis(4-methylpyridin-2-amine)]
Bovine eNOS; [3]
  Ki: 1.52 µM
Rat nNOS; [2]
  Ki: 0.102 µM
Rat nNOS
  n/e: 14.9
  n/i: 20.1
Murine macrophage iNOS; [4]
  Ki: 2.05 µM

## Cc1cc(N)nc(CCc2ccc3ccc(CCc4cc(C)nc(N)c4)cc3c2)c1 [3d, 4-(2-(7-(2-(6-Amino-4-methylpyridin-2-yl)ethyl)naphthalen-2-yl)ethyl)-6-methylpyridin-2-amine]
Rat nNOS
  activity/potency for nNOS in words: little activity
Rat nNOS; [2]
  Ki: > 0.5 µM

## Cc1cc(N)nc(CCc2ccc(CCc3cc(C)cc(N)n3)cc2)c1 [3e]
Bovine eNOS; [3]
  Ki: 2.39 µM
Rat nNOS
  selectivity for nNOS over eNOS: 25 fold
  n/e: 24.6
  n/i: 24.8
Rat nNOS; [2]
  Ki: 0.097 µM
Murine macrophage iNOS; [4]
  Ki: 2.41 µM

## Cc1cc(N)nc(CCc2ccc(CCc3cc(C)nc(N)c3)cc2)c1 [3f, 4-(4-(2-(6-Amino-4-methylpyridin-2-yl)ethyl)phenethyl)-6-methylpyridin-2-amine]
Rat nNOS
  activity/potency for nNOS in words: inactive
Rat nNOS; [2]
  Ki: 0.167 µM

## Cc1cc(N)nc(CCc2cccc(CCc3cc(C)cc(N)n3)c2)c1 [3g, 6,6′-(2,2′-(1,3-Phenylene)bis(ethane-2,1-diyl))bis(4-methylpyridin-2-amine)]
[1]
  activity in the cell-based assay in words: almost no activity

## Cc1cc(N)nc(CCc2cccc(CCc3cc(C)nc(N)c3)c2)c1 [3h, 4-(3-(2-(6-Amino-4-methylpyridin-2-yl)ethyl)phenethyl)-6-methylpyridin-2-amine]
Bovine eNOS; [3]
  Ki: 4.2 µM
[1]
  activity in the cell-based assay in words: almost no activity
Rat nNOS
  selectivity for nNOS over eNOS: 111 fold
  selectivity for nNOS over iNOS: 71.8 fold
  activity/potency for nNOS in words: highly potent
  n/e: 111
  n/i: 71.8
Rat nNOS; [2]
  Ki: 0.038 µM
Murine macrophage iNOS; [4]
  Ki: 2.73 µM

## Cc1cc(CCc2cccc(CCc3cc(C)nc(N)c3)c2)cc(N)n1 [3i, 4,4′-(2,2′-(1,3-Phenylene)bis(ethane-2,1-diyl))bis(6-methylpyridin-2-amine)]
Rat nNOS
  activity/potency for nNOS in words: poor activity
Rat nNOS; [2]
  Ki: 2.25 µM

## Cc1cc(N)nc(CCc2cncc(CCc3cc(C)cc(N)n3)c2)c1 [3j, 6,6′-(2,2′-(Pyridine-3,5-diyl)bis(ethane-2,1-diyl))bis(4-methylpyridin-2-amine)]
[1]
  membrane penetration ability / bioavailability based on cell-based assay: very good membrane penetration ability; also recorded: improved bioavailability

## Cc1cc(N)nc(CCc2cncc(CCc3cc(C)nc(N)c3)c2)c1 [3k, 4-(2-(5-(2-(6-Amino-4-methylpyridin-2-yl)ethyl)pyridin-3-yl)ethyl)-6-methylpyridin-2-amine]
Bovine eNOS; [3]
  Ki: 16.1 µM
[1]
  membrane penetration ability / bioavailability based on cell-based assay: very good membrane penetration ability
Rat nNOS
  selectivity for nNOS over eNOS: 156 fold
  activity/potency for nNOS in words: highly potent
  n/e: 156
  n/i: 19
Rat nNOS; [2]
  Ki: 0.103 µM
Murine macrophage iNOS; [4]
  Ki: 1.91 µM

## Cc1cc(N)nc(CCc2cc(C#N)cc(CCc3cc(C)cc(N)n3)c2)c1 [HH006, 3,5-bis(2-(6-amino-4-methylpyridin-2-yl)ethyl)benzonitrile]
Bovine eNOS; [5]
  Ki: 26.4 µM
Rat nNOS; Table 4
  Selectivity n/e: 472
  Selectivity n/i: 239
Rat nNOS
  activity/potency for nNOS in words: good potency and selectivity
Rat nNOS; [6]
  Ki: 0.056 µM
Murine macrophage iNOS; [7]
  Ki: 13.4 µM

## Cc1cc(N)nc(CCc2cc(CCc3cc(C)cc(N)n3)cc(N3CCNCC3)c2)c1 [HH025]
Bovine eNOS; [5]
  Ki: 63.2 µM
Rat nNOS; Table 4
  Selectivity n/e: 30
  Selectivity n/i: 17
Rat nNOS; [6]
  Ki: 2.1 µM
Murine macrophage iNOS; [7]
  Ki: 36.7 µM

## Cc1cc(N)nc(CCc2cc(CCCN)cc(CCc3cc(C)cc(N)n3)c2)c1 [HH026]
Bovine eNOS; [5]
  Ki: 12.1 µM
Rat nNOS; Table 4
  Selectivity n/e: 22
  Selectivity n/i: 60
Rat nNOS; [6]
  Ki: 0.54 µM
Murine macrophage iNOS; [7]
  Ki: 32.5 µM

## Cc1cc(N)nc(CCc2cc(CCc3cc(C)cc(N)n3)cc(N3CCN(C)CC3)c2)c1 [HH027]
Bovine eNOS; [5]
  Ki: 97.4 µM
Rat nNOS; Table 4
  Selectivity n/e: 17
  Selectivity n/i: 24
Rat nNOS; [6]
  Ki: 5.75 µM
Murine macrophage iNOS; [7]
  Ki: 138 µM

## Cc1cc(N)nc(CCc2cc(CN)cc(CCc3cc(C)cc(N)n3)c2)c1 [HH030, 6,6′-((5-(aminomethyl)-1,3-phenylene)bis(ethane-2,1-diyl))bis(4-methylpyridin-2-amine)]
Bovine eNOS; [5]
  Ki: 11.7 µM
Rat nNOS; Table 4
  Selectivity n/e: 221
  Selectivity n/i: 119
Rat nNOS; [6]
  Ki: 0.053 µM
Murine macrophage iNOS; [7]
  Ki: 6.31 µM

## Cc1cc(N)nc(CCc2ccc(CCCN)c(CCc3cc(C)cc(N)n3)c2)c1 [HH032]
Bovine eNOS; [5]
  Ki: 33.4 µM
Rat nNOS; Table 4
  Selectivity n/e: 303
  Selectivity n/i: 199
Rat nNOS; [6]
  Ki: 0.11 µM
Murine macrophage iNOS; [7]
  Ki: 21.9 µM
